Structures are written as SMILES. pIC50: −log10 of the molar value. Read-outs that look alike come from different tables or passages of the source.

One may read the pIC50 as the IC50 on a negative log10 scale, so that one unit is a factor of ten. A word on the IC50: it is the midpoint of a concentration-inhibition curve.

Experiment [1] addresses T1, Na^+,K^+ -ATPase receptor (Canis lupus familiaris, UniProt P50997).
T1 construct: from tissue; mammalian kidney outer medulla by the cited Jorgensen 1974 method (own knowledge)
Kind of experiment: displacement of the specific 3H-ouabain binding from the purified Na+,K+-ATPase receptor. The conditions noted are these: for IC50: displacement of specific 3H-ouabain binding, purified Na+,K+-ATPase, read-out: Binding 3H-Ouab. Displacement log IC50 (converted). The source says: (§1) To test the affinity for the receptor site of the Na^+,K^+ -ATPase and the agonist or antagonist activity on the enzyme, the following tests were used: a) displacement of the specific ^3 H-ouabain binding from the Na^+,K^+ -ATPase receptor purified according to Jorghensen (Jorghensen P., BBA, 1974, 356, 36) and Erdmann (Erdmann E. et al., Arzneim. Forsh., 1984, 34, 1314); b) inhibition of the activity of the purified Na^+,K^+ -ATPase measured as % of hydrolysis of ^32 P-ATP in presence and in absence of the tested compound (Mall F. et al., Biochem. Pharmacol., 1984, 33, 47).

Experiment [2] deals with T2, purified Na^+,K^+ -ATPase (Canis lupus familiaris, UniProt P50997).
T2 construct: from tissue; mammalian kidney outer medulla by the cited Jorgensen 1974 method (own knowledge)
The experiment is described as follows: inhibition of the activity of the purified Na+,K+-ATPase measured as % of hydrolysis of 32P-ATP. The class given is biochemical. The conditions noted are these: for IC50: hydrolysis of 32P-ATP, purified Na+,K+-ATPase, read-out: Inhibitory Activity log IC50 (converted).
Source text: as §1

For a further experiment, the system named is hypertensive MHS rats. Kind of experiment: systolic blood pressure and heart rate in hypertensive MHS rats (indirect tail-cuff method). The class given is in vivo, rat (MHS). The conditions noted are these: 20 mg/Kg/os daily for ten days in METHOCEL 0.5% w/v, 7 rats; for SBP (systolic blood pressure): controls 171 ± 4.5; for HR (heart rate): controls 384 ± 11.0. As for the experimental part: The ability of these compounds to lower blood pressure in adult hypertensive MHS rats was tested by the following method: systolic blood pressure (SBP) and heart rate (HR) were measured by an indirect tail-cuff method in three-month old hypertensive MHS rats before beginning treatment (basal values). The rats were then subdivided in two groups of 7 animals each, one receiving the compound and the other, the control group, receiving only the vehicle. The compound, suspended in METHOCEL® 0.5% (w/v), for ten days, was administered daily by mouth. SBP and HR were measured daily 6 and 24 hours after the treatment. When ten-day treatment washout had been under way for at least two days, whether the treatment maintains SBP low or re-establish the basal values was verified. The affinity and the inhibitory activity of some ethers and of the reference compound (II-a) in the two tests are shown in the following table: […]

`C[C@]12CC[C@H](OCCCN)C[C@H]1CC[C@@H]1[C@@H]2CC[C@]2(C)[C@@H](c3ccoc3)CC[C@]12O` [Comp. I-ab, 3β-(3-Aminopropoxy)-17β-(3-furyl)-5β-androstan-14β-ol] had a negative logarithm of the IC50 (pIC50) in experiment [1] of 6.90. Also, the IC50 in experiment [2] was 1260 nM. In addition, in the experiment on hypertensive MHS rats, the “SBP (systolic blood pressure)” value is on record as 157 ± 4.9 mm Hg and the “HR (heart rate)” value was found to be 371 ± 10.0 beats/min.
With `C[C@]12CC[C@H](OCCCN3CCCC3)C[C@H]1CC[C@@H]1[C@@H]2CC[C@]2(C)[C@@H](c3ccoc3)CC[C@]12O` [Comp. I-ae], the negative logarithm of the IC50 (pIC50) in experiment [1] is 6.90; in experiment [2], 6.10. The “SBP (systolic blood pressure)” value with hypertensive MHS rats is 154 ± 6.3 mm Hg. Also, in the experiment on hypertensive MHS rats, the “HR (heart rate)” value is given as 395 ± 8.7 beats/min.
With `C[C@]12CC[C@H](OCCNCCN3CCCC3)C[C@H]1CC[C@@H]1[C@@H]2CC[C@]2(C)[C@@H](c3ccoc3)CC[C@]12O` [Comp. I-ag, 3β-(2-(2-(1-Pyrrolidinyl)ethylamino)ethoxy)-17β-(3-furyl)-5β-androstan-14β-ol], the pIC50 in experiment [1] was 6.80. This compound gave a negative logarithm of the IC50 (pIC50) in experiment [2] of 5.80. Besides, in the experiment with hypertensive MHS rats, the “SBP (systolic blood pressure)” value was 162 ± 5.0 mm Hg and the “HR (heart rate)” value amounted to 377 ± 9.0 beats/min.
For `C[C@]12CC[C@H](OCCSCCN3CCCC3)C[C@H]1CC[C@@H]1[C@@H]2CC[C@]2(C)[C@@H](c3ccoc3)CC[C@]12O` [Comp. I-ai, 3β-(2-(2-(1-Pyrrolidinyl)ethylthio)ethoxy)-17β-(3-furyl)-5β-androstan-14β-ol], the figures for the negative logarithm of the IC50 (pIC50) in experiment [1] and in experiment [2] were 6.70 and 6.20, respectively. Further, the “SBP (systolic blood pressure)” value in the experiment with hypertensive MHS rats was 160 ± 4.7 mm Hg. Also, the “HR (heart rate)” value in the experiment with hypertensive MHS rats is reported as 390 ± 8.9 beats/min.
For `C[C@]12CC[C@H](OCCNC(=N)N)C[C@H]1CC[C@@H]1[C@@H]2CC[C@]2(C)[C@@H](c3ccoc3)CC[C@]12O` [Comp. I-al, 3β-(2-Guanidinoethoxy)-17β-(3-furyl)-5β-androstan-14β-ol nitrate], in that order: 6.90, 5.80, 159 ± 5.0 mm Hg and 393 ± 9.0 beats/min.
`C[C@]12CC[C@H](SCCN)C[C@H]1CC[C@@H]1[C@@H]2CC[C@]2(C)[C@@H](c3ccoc3)CC[C@]12O` [Comp. I-bv, 3β-(2-Aminoethylthio)-17β-(3-furyl)-5β-androstan-14β-oloxalate]: the IC50 in experiment [1] is 501 nM. In experiment [2], the negative-log IC50 (pIC50) is 5.70. Moreover, in the experiment with hypertensive MHS rats, the “SBP (systolic blood pressure)” value is 161 ± 4.2 mm Hg and the “HR (heart rate)” value turned out to be 384 ± 6.7 beats/min.
For `C[C@]12CC[C@H](SCCN3CCCC3)C[C@H]1CC[C@@H]1[C@@H]2CC[C@]2(C)[C@@H](c3ccoc3)CC[C@]12O` [Comp. I-bw, 3β-(2-(1-Pyrrolidinyl)ethylthio)-17β-(3-furyl)-5β-androstan-14β-ol], the 50% inhibitory concentration (IC50) in experiment [1] was 794 nM. The IC50 in experiment [2] was 3980 nM. In addition, in the experiment with hypertensive MHS rats, the “SBP (systolic blood pressure)” value was 157 ± 4.3 mm Hg and the “HR (heart rate)” value stood at 392 ± 10.0 beats/min.
Compound `C[C@]12CC[C@H](SCCOCCN3CCCC3)C[C@H]1CC[C@@H]1[C@@H]2CC[C@]2(C)[C@@H](c3ccoc3)CC[C@]12O` [Comp. I-by, 3β-(2-(2-(1-Pyrrolidinyl)ethoxy)ethylthio)-17β-(3-furyl)-5β-androstan-14β-ol] showed a negative-log IC50 (pIC50) in experiment [1] of 6.80. For the same compound, the pIC50 in experiment [2] is 6.00. Also, in the experiment on hypertensive MHS rats, the “SBP (systolic blood pressure)” value was found to be 154 ± 6.3 mm Hg and the “HR (heart rate)” value amounted to 395 ± 8.7 beats/min.
For `C[C@]12CC[C@H](O)C[C@H]1CC[C@@H]1[C@@H]2CC[C@]2(C)[C@@H](c3ccoc3)CC[C@]12O` [Comp. II-a, 17β-(3-furyl)-5β-androstane-3β,14β-diol, reference compound], in the experiment with hypertensive MHS rats, the “SBP (systolic blood pressure)” value was determined as 175 ± 4.1 mm Hg and the “HR (heart rate)” value is listed as 382 ± 9.0 beats/min.

These data come from patent publication US5593982A, “Cyclopentanperhydrophenanthren-17β-(3-furyl)-3-derivatives and pharmaceutical compositions comprising same for the treatment of cardiovascular disorders” (Sigma-Tau Industrie Farmaceutiche Riunite S.p.A., priority 1992, dated 1997).
